pIC50: −log10 of the molar value.

As usually defined, the pIC50 is −log10 of the IC50, conventionally taken in molar units. What is called inhibition is the change of the read-out against control, counted positive when it falls.

In the first assay the target is T1, human topoisomerase II α (Homo sapiens, UniProt P11388).
T1 construct: purchased Professor Neil Osheroff (Vanderbilt University, Nashville, Tenn., USA)
T1 sequence (P11388 whole entry): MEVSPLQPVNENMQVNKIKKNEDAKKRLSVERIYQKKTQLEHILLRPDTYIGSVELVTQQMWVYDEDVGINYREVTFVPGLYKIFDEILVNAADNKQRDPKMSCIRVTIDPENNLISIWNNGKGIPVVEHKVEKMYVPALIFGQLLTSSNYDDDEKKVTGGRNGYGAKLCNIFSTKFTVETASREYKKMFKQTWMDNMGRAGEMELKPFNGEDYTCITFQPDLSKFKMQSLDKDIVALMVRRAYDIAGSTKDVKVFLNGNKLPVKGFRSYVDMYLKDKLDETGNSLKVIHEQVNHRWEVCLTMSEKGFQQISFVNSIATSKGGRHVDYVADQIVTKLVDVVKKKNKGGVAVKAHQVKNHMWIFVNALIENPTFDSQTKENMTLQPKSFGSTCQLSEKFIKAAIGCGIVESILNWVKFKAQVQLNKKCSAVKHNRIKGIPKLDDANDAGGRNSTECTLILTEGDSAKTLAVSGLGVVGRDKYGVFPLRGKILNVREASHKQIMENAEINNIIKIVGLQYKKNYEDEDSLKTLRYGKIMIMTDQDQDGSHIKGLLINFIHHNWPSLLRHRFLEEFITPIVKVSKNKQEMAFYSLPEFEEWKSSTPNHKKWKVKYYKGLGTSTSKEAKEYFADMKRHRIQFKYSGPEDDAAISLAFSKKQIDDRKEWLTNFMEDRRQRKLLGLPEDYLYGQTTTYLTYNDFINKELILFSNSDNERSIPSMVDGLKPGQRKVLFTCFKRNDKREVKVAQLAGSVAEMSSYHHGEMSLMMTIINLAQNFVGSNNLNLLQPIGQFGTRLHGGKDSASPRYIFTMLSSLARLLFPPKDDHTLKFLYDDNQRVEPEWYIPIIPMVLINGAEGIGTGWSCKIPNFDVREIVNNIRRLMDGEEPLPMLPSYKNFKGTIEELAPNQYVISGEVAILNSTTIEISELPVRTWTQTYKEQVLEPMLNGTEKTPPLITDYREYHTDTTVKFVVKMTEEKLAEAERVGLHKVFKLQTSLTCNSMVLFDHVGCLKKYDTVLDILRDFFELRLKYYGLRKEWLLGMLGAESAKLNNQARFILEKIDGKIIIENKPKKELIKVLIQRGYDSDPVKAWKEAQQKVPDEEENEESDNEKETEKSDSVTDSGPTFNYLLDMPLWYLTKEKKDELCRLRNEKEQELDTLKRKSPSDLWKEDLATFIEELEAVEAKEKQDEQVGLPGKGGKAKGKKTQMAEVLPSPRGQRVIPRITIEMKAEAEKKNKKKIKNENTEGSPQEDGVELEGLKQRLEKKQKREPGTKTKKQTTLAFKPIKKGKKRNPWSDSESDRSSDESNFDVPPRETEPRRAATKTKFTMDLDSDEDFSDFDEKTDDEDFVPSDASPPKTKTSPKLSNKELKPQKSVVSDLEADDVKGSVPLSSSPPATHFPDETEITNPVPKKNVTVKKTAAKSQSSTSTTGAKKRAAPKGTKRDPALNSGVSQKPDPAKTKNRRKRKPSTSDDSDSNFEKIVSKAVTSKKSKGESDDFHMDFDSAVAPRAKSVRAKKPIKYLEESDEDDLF
Description: Topoisomerase II ATPase assay (Malachite Green). The class given is biochemical.
Settings: not given
The method, then: The inhibition of topoisomerase II is measured as follows:
Purified human topoisomerase II α was purchased from Professor Neil Osheroff (Vanderbilt University—Nashville, Tenn., USA).
The pUC18 (Stratagene) plasmid was introduced into Escherichia coil XL-1 (Stratagene) and purified with the HiSpeed Plasmid Purification kit (Qiagen) according to the manufacturer instructions. The purity of the DNA preparations was evaluated spectrophotometrically (OD260/OD280 ratio) and by agarose gel.
Preparation of the Malachite Green Reagent:
Three volumes of 0.045% malachite green (Sigma, catalog no. M-9636) diluted in water are mixed for 20 min at room temperature with one volume of 4.2% ammonium molybdate (Axon Lab AG, catalog no. A-2246) diluted in 4 N HCl. After mixing, Triton X-100 (Merck, catalog no. 1.12298) is added to a final concentration of 0.01%. The solution is filtered at 0.2 μm and stored at room temperature in the dark.
ATP hydrolysis was monitored by measuring the production of inorganic phosphate released during the catalytic cycle of topoisomerase II α with acidic molybdate and malachite green (Lanzetta,et al., An improved assay for nanomole amounts of inorganic phosphate, Anal Biochem 1979;100:95-7). Briefly, human topoisomerase II α is pre-incubated at 37° C. for 10 min in 90 μl reaction buffer (10 mM Tris.HCl pH 7.9, 175 mM KCl, 1 mM EDTA, 2 mM DTT, 5 mM MgCl2, 2.5% glycerol) in the presence of the indicated amount of pUC18 and DMSO in F96 maxisorp Nunclmmuno plates (Nunc). The reaction is initiated by the addition of 10 μl ATP at the indicated concentrations and is carried out for 30 min at 37° C. under constant agitation. The reaction is stopped by the addition of 200 μl molybdate/malachite green solution and the absorbance is immediately measured at 630 nm. The OD630 value is measured in the absence of protein for each ATP concentration (background) is subtracted from the value obtained in the presence of enzyme. A standard curve with inorganic phosphate is used to determine the amount of inorganic phosphate produced during the reaction and to ensure that the measures are in the linear range of the assay. The kinetic parameters of the enzymes are determined from measurements (at least in duplicate) of the initial rates at different ATP concentrations. The data are analyzed with GraFit (Erithacus Software).
The compounds are tested at 10 μM of concentration to determine their inhibition potential given % of inhibition of the TOPO II ATPase activity.
For the determination of the IC50, the procedure is repeated for different concentrations of test compound selected to cover the range of 0% to 100% inhibition and the concentration at which 50% inhibition of topoisomerase II occurs (IC50) for each compound is determined from concentration-inhibition curves in a conventional manner.
Turning to `CC(C)(C)Nc1nc(Nc2ccc3cc(OCCN4CCOCC4)ccc3c2)nc2[nH]cnc12` [Example 22, N*6*-tert-Butyl-N*2*-[6-(2-morpholin-4-yl-ethoxy)-naphthalen-2-yl]-9H-purine-2,6-diamine], the negative-log IC50 (pIC50) is 5.74.
As to `c1nc2c(NC3CCCCCC3)nc(Nc3ccc4ncsc4c3)nc2[nH]1` [Example 1, N*2*-Benzothiazol-6-yl-N*6*-cycloheptyl-9H-purine-2,6-diamine], the pIC50 was 5.08.

The same assay, now with this note: OD measured at 630 nm.
Take `c1nc2c(NC3CCCCCC3)nc(Nc3ccc4ncsc4c3)nc2[nH]1` [Example 1, N*2*-Benzothiazol-6-yl-N*6*-cycloheptyl-9H-purine-2,6-diamine]: the “ATP competitive inhibitor activity” value is listed as “ATP competitive inhibitor”.

The assay is the same for the next values; noted with them: Percent inhibition @10 μM, Malachite Green assay; read-out: TOPO II inh. (inhibition of the TOPO ATPase activity).
`c1nc2c(NC3CCCCCC3)nc(Nc3ccc4nsnc4c3)nc2[nH]1` [Example 49, N*2*-Benzo[1,2,5]thiadiazol-5-yl-N*6*-cycloheptyl-9H-purine-2,6-diamine]: the inhibition at 10 µM was under 50%.
The same measure, in the same setting: next, `CC(C)(Cc1ccc(F)cc1)Nc1nc(Nc2ccc3nsnc3c2)nc2[nH]cnc12` [Example 57, N*2*-Benzo[1,2,5]thiadiazol-5-yl-N*6*-[2-(4-fluoro-phenyl)-1,1-dimethyl-ethyl]-9H-purine-2,6-diamine]: under 50%; `CCc1nc2c(NC(C)C(F)(F)F)nc(Nc3ccc4ncsc4c3)nc2[nH]1` (stereo not shown) [Example 28, N*2*-Benzothiazol-6-yl-8-ethyl-N*6*-(2,2,2-trifluoro-1-methyl-ethyl)-9H-purine-2,6-diamine]: 50 to 65%.
Take `CNc1nc2c(NC(C)(C)C)nc(Nc3ccc4ccccc4c3)nc2[nH]1` [Example 44, N*6*-tert-Butyl-N*8*-methyl-N*2*-naphthalen-2-yl-9H-purine-2,6,8-triamine]: the inhibition at 10 µM was 65 to 80%.
Regarding `c1nc2c(NC3CCCCCCC3)nc(Nc3ccc4ncsc4c3)nc2[nH]1` [Example 7, N*2*-Benzothiazol-6-yl-N*6*-cyclooctyl-9H-purine-2,6-diamine], the inhibition at 10 µM fell in the range of 50 to 65%.
In the case of `c1nc2c(NC3C4CC5CC(C4)CC3C5)nc(Nc3ccc4ncsc4c3)nc2[nH]1` (stereo not shown) [Example 5, N*6*-Adamantan-2-yl-N*2*-benzothiazol-6-yl-9H-purine-2,6-diamine], the inhibition at 10 µM was 50 to 65%.
For the compound `CCC(C)(C)Nc1nc(Nc2ccc3nc(C)sc3c2)nc2[nH]cnc12` [Example 54, N*6*-(1,1-Dimethyl-propyl)-N*2*-(2-methyl-benzothiazol-6-yl)-9H-purine-2,6-diamine], the inhibition at 10 µM is under 50%.
On to `CC(C)(C)Nc1nc(Nc2ccc3cc(OCCN4CCOCC4)ccc3c2)nc2[nH]cnc12` [Example 22, N*6*-tert-Butyl-N*2*-[6-(2-morpholin-4-yl-ethoxy)-naphthalen-2-yl]-9H-purine-2,6-diamine], for which the inhibition at 10 µM is at least 80%.
On to `CC(C)(C)Nc1nc(Nc2ccc3ccccc3c2)nc2[nH]c(N)nc12` [Example 43, N*6*-tert-Butyl-N*2*-naphthalen-2-yl-9H-purine-2,6,8-triamine], for which the inhibition at 10 µM was in the range of 65 to 80%.
As to `CC(C)(CO)Nc1nc(Nc2ccc3ncsc3c2)nc2[nH]cnc12` [Example 68, 2-[2-(Benzothiazol-6-ylamino)-9H-purin-6-ylamino]-2-methyl-propan-1-ol], the inhibition at 10 µM was under 50%.
As for `OC1CCC(Nc2nc(Nc3ccc4ncsc4c3)nc3[nH]cnc23)CC1` (stereo not shown) [Example 9, 4-[2-(Benzothiazol-6-ylamino)-9H-purin-6-ylamino]-cyclohexanol], the inhibition at 10 µM was under 50%.
On to `Cc1nc2ccc(Nc3nc(NC(C)(C)C)c4nc[nH]c4n3)cc2s1` [Example 19, N*6*-tert-Butyl-N*2*-(2-methyl-benzothiazol-6-yl)-9H-purine-2,6-diamine], for which the inhibition at 10 µM fell in the range of 50 to 65%.
Regarding `CC(=O)c1nc2c(NC(C)(C)C)nc(Nc3ccc4ncsc4c3)nc2[nH]1` [Example 45, 1-[2-(Benzothiazol-6-ylamino)-6-tert-butylamino-9H-purin-8-yl]-ethanone], the inhibition at 10 µM was under 50%.
As to `C=C(C=Cc1nc(OCCN2CCOCC2)sc1C)Nc1nc(NC(C)(C)C)c2nc(C3CC3)[nH]c2n1` [Example 39, N*6*-tert-Butyl-8-cyclopropyl-N*2*-{1-methylene-3-[5-methyl-2-(2-morpholin-4-yl-ethoxy)-thiazol-4-yl]-allyl}-9H-purine-2,6-diamine], the inhibition at 10 µM lay within 65 to 80%.
As for `CCc1nc2c(N3CCCC3C)nc(Nc3ccc4ncsc4c3)nc2[nH]1` (stereo not shown) [Example 29, Benzothiazol-6-yl-[8-ethyl-6-(2-methyl-pyrrolidin-1-yl)-9H-purin-2-yl]-amine], the inhibition at 10 µM was under 50%.
On the same count and under the same terms, next, `CC(C)(C)Nc1nc(Nc2ccc3ncsc3c2)nc2[nH]cnc12` [Example 65, N*2*-Benzothiazol-6-yl-N*6*-tert-butyl-9H-purine-2,6-diamine]: 50 to 65%; `CCCc1nc2c(NC(C)(C)C)nc(Nc3ccc4ncsc4c3)nc2[nH]1` [Example 32, N*2*-Benzothiazol-6-yl-N*6*-tert-butyl-8-propyl-9H-purine-2,6-diamine]: under 50%; `CCOC(=O)CC(C)Nc1nc(Nc2ccc3ncsc3c2)nc2[nH]c(CC)nc12` (stereo not shown) [Example 31, 3-[2-(Benzothiazol-6-ylamino)-8-ethyl-9H-purin-6-ylamino]-butyric acid ethyl ester]: under 50%.
Regarding `CC(C)c1nc2c(NC(C)(C)C)nc(Nc3ccc4ncsc4c3)nc2[nH]1` [Example 33, N*2*-Benzothiazol-6-yl-N*6*-tert-butyl-8-isopropyl-9H-purine-2,6-diamine], the inhibition at 10 µM was under 50%.
As for `C=C(C=Cc1nc(OCCN2CCOCC2)sc1C)Nc1nc(NC(C)(C)C)c2nc(C(C)C)[nH]c2n1` [Example 38, N*6*-tert-Butyl-8-isopropyl-N*2*-{1-methylene-3-[5-methyl-2-(2-morpholin-4-yl-ethoxy)-thiazol-4-yl]-allyl}-9H-purine-2,6-diamine], the inhibition at 10 µM was under 50%.
Regarding `Cc1nc2ccc(Nc3nc(NC4CCCCCC4)c4nc[nH]c4n3)cc2s1` [Example 50, N*6*-Cycloheptyl-N*2*-(2-methyl-benzothiazol-6-yl)-9H-purine-2,6-diamine], the inhibition at 10 µM was in the range of 50 to 65%.
`c1cncc(N2CCN(c3nc(Nc4ccc5ncsc5c4)nc4[nH]cnc34)CC2)c1` [Example 59, Benzothiazol-6-yl-[6-(4-pyridin-3-yl-piperazin-1-yl)-9H-purin-2-yl]-amine]: the inhibition at 10 µM is under 50%.
The same measure, in the same setting: for `Cc1nc2c(NC3CCCCCC3)nc(Nc3ccc4ncsc4c3)nc2[nH]1` [Example 26, N*2*-Benzothiazol-6-yl-N*6*-cycloheptyl-8-methyl-9H-purine-2,6-diamine] the value was under 50%.
Regarding `c1cnc2ccc(Nc3nc(N4CCN(c5cnccn5)CC4)c4nc[nH]c4n3)cc2c1` [Example 64, Quinolin-6-yl-[6-(2,3,5,6-tetrahydro-[1,2′]bipyrazinyl-4-yl)-9H-purin-2-yl]-amine], the inhibition at 10 µM is under 50%.
As to `c1cnc2ccc(Nc3nc(NC4CCCCCC4)c4nc[nH]c4n3)cc2c1` [Example 67, N*6*-Cycloheptyl-N*2*-quinolin-6-yl-9H-purine-2,6-diamine], the inhibition at 10 µM was under 50%.
Regarding `c1ccc(N2CCN(c3nc(Nc4ccc5ncsc5c4)nc4[nH]cnc34)CC2)nc1` [Example 60, Benzothiazol-6-yl-[6-(4-pyridin-2-yl-piperazin-1-yl)-9H-purin-2-yl]-amine], the inhibition at 10 µM was under 50%.
`COc1ccc2cc(Nc3nc(NC(C)(C)C)c4nc[nH]c4n3)ccc2c1` [Example 21, N*6*-tert-Butyl-N*2*-(6-methoxy-naphthalen-2-yl)-9H-purine-2,6-diamine]: the inhibition at 10 µM is at least 80%.
Still for that read-out and setting: next, `c1nc2c(NC3CC4CCC3C4)nc(Nc3ccc4ncsc4c3)nc2[nH]1` (stereo not shown) [Example 6, N*2*-Benzothiazol-6-yl-N*6*-bicyclo[2.2.1]hept-2-yl-9H-purine-2,6-diamine]: 50 to 65%; `c1ccc(N2CCN(c3nc(Nc4ccc5ncccc5c4)nc4[nH]cnc34)CC2)nc1` [Example 61, [6-(4-Pyridin-2-yl-piperazin-1-yl)-9H-purin-2-yl]-quinolin-6-yl-amine]: under 50%; `CC(C)Cc1nc2c(NC(C)(C)C)nc(Nc3ccc4ccccc4c3)nc2[nH]1` [Example 74, N*6*-tert-Butyl-8-isobutyl-N*2*-naphthalen-2-yl-9H-purine-2,6-diamine]: under 50%.
Consider `Cc1nc2ccc(Nc3nc(NC(C)(C)Cc4ccc(F)cc4)c4nc[nH]c4n3)cc2s1` [Example 58, N*6*-[2-(4-Fluoro-phenyl)-1,1-dimethyl-ethyl]-N*2*-(2-methyl-benzothiazol-6-yl)-9H-purine-2,6-diamine], for which the inhibition at 10 µM is under 50%.

Source of the values: US20070249639A1, “Use of 9H-Purine-2,6-Diamine Derivatives in the Treatment of Proliferative Diseases and Novel 9H-Purine-2,6-Diamine Derivatives” (priority 2004, published 2007).
